Test results: PubChem BioAssay (NCI)
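Cultured in 96-well plates, cells were exposed to test compound for 48 hours across five concentrations. Here, GI50 denotes the concentration required for 50% inhibition of growth. At the TGI there is no net growth.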

Experiments:
Assay in all cases: DTP human tumour cell line panel, 48 h
T-47D breast = system: T-47D breast
A549 NSCLC = system: A549 NSCLC
MCF7 breast = system: MCF7 breast
SNB-19 CNS = system: SNB-19 CNS
SR leukemia = system: SR leukemia
SK-MEL-28 melanoma = system: SK-MEL-28 melanoma
HCT-116 colon = system: HCT-116 colon
KM12 colon = system: KM12 colon
SF-539 CNS = system: SF-539 CNS
NCI-H23 lung = system: NCI-H23 lung

SMILES	GI50 (T-47D breast) [µM]	TGI (T-47D breast) [µM]	GI50 (A549 NSCLC) [µM]	TGI (A549 NSCLC) [µM]	GI50 (MCF7 breast) [µM]	TGI (MCF7 breast) [µM]	GI50 (SNB-19 CNS) [µM]	TGI (SNB-19 CNS) [µM]	GI50 (SR leukemia) [µM]	TGI (SR leukemia) [µM]	GI50 (SK-MEL-28 melanoma) [µM]	TGI (SK-MEL-28 melanoma) [µM]	GI50 (HCT-116 colon) [µM]	TGI (HCT-116 colon) [µM]	GI50 (KM12 colon) [µM]	TGI (KM12 colon) [µM]	GI50 (SF-539 CNS) [µM]	TGI (SF-539 CNS) [µM]	GI50 (NCI-H23 lung) [µM]	TGI (NCI-H23 lung) [µM]
FC(F)(F)c1ccc(-c2cnc(Cl)nc2NCc2cc(C(F)(F)F)cc(C(F)(F)F)c2)cc1	3.14	> 100	2.81	> 100	2.65	> 100	2.44	> 100	3.67	> 100	3.93	> 100	3.32	> 100	3.06	> 100	3.78	> 100	3.28	> 100
CC(C)N1C(NNC(=O)c2cnccn2)=NS(=O)(=O)c2ccccc21	> 100	> 100	> 100	> 100	> 100	> 100	> 100	> 100	> 100	> 100	> 100	> 100	> 100	> 100	> 100	> 100	> 100	> 100	> 100	> 100
CSC1(SC2=NCCN2)SC2(NCCN2)S1		5.91		40.1		12.8		41.9		37.7		40.1		31.7		5.37		56.5		33.4
COC(=O)C1=C(OC(=O)c2ccc(Cl)cc2)C(C(=O)OC)[C@@]2(O)[C@@H](C(=O)OC)C(c3ccccc3Cl)C[C@@H]1[C@@H]2C(=O)OC (stereo not given in full)	9.39	> 100	3.16	> 100	5.47	> 100	24.1	> 100	8.11	> 100	30.1	> 100	3.17	> 100	2.81	50.8	12.4	61	3.23	> 100
Nc1n[nH]c2ccc([C@@H]3Nc4ccc5[nH]ncc5c4[C@H]4C5C=CC(C5)[C@@H]34)cc12 (stereo not given in full)	10.9	77.1	0.444	> 85.2	0.14	19	0.59	61.3	0.144	> 100	1.59	31.9	0.351	3.33	0.39	11.4	0.271	1.1	0.446	14
CCN(CC)c1ccc(C(=N)c2ccc(N(C)C)cc2)cc1	1.27	9.42	1.62	11.4	0.197	7.25	2.19	10.1	0.301	2.8	0.384	7.13	0.155	3.39	0.171	4.05	1.63	4.18	0.218	3.19
Clc1nc(Cl)c(-c2ccccc2)c(Cl)n1		9.28		36.1		9.45		28.5		6.85		19.3		3.6		14.6		10.9		12
